According to patent US9346813B2, “Substituted pyrrolo[2,3-d]pyrimindines as CDK9 kinase inhibitors” (AbbVie Inc., priority 2014, dated 2016):

Tests used:
[1] = target: T1, CDK9/Cyclin T1 (Homo sapiens, UniProt P50750); assay: CDK9 enzyme protocol (LANCE ULight TR-FRET kinase assay); type: biochemical; conditions: 4 nM CDK9/Cyclin T1, 1000 μM ATP, 100 nM U-light MBP peptide, 30 minutes
T1 construct: purchased Carna Biosciences 04-110
Protocol: CDK9 enzyme activities were measured using LANCE ULight TR-FRET kinase assay reagents (PerkinElmer, Waltham, Mass.). Compounds were directly added in 100% DMSO to white low volume assay plates (Perkin Elmer Proxiplate 6008289) using a Labcyte Echo acoustic dispenser. Assay reagents in serine/threonine kinase assay buffer containing 20 mM HEPES, 10 mM MgCl2, 100 mM Na3VO4, and 0.0075% Triton X-100. were added for final reaction mixture concentrations of 1000 μM ATP, 100 nM U-light MBP peptide (Perkin Elmer TRF0109M) and reaction initiated with 4 nM CDK9/Cyclin T1 (Carna Biosciences 04-110). The kinase reaction was carried out for 30 minutes before addition of stopping buffer to a final of 20 mM EDTA and 0.5 nM of LANCE Ultra Europium anti-phospho-MBP antibody (PerkinElmer TRF0201M) in LANCE detection buffer (PerkinElmer CR97-100). The reaction was equilibrated for 1 hour and the signal read in the Perkin Elmer Envision in TR-FRET mode (excitation at 320 nm and emission at 615/665 nm).

[2] = test system: H929 cells; assay: Cell viability assay in H929 cells (Cell TiterGlo); type: cell-based; conditions: Homo sapiens, NCI-H929, 24 hours at 37° C.
Protocol: Cell viability assays were performed using A431 or H929 cells. A431 cells were seeded in 96-well plates at 10,000 cells/well, and after overnight incubation, treated with compounds at 2-times the final concentration to result in a dose response of 3-fold dilutions from 10 μM to 0.0005 μM (50 μL/well, 0.1% final DMSO concentration). H929 cells were seeded in 96-well plates at 10,000 cells/well and treated immediately with compounds as described above. After 24 hours at 37° C., cell viability was measured using Cell TiterGlo reagent (Promega) with a luminescence reader. Alternately, cell viability assays were performed in 384-well format. A431 cells were seeded in 384-well plates at 2500 cells/well and, after overnight incubation, treated with compounds in a dose response of 3-fold dilutions from 10 μM to 0.0005 μM (25 nL/well, 0.1% final DMSO concentration). For the H929 viability assay, 25 nL/well of the compounds was dispensed into 384-well plates in a dose response as described above and cells were immediately seeded in 384-well plates at 2500 cells/well. After 24 hours at 37° C., cell viability was measured using Cell TiterGlo reagent (Promega) with a luminescence reader.

T1 sequence (P50750 whole entry): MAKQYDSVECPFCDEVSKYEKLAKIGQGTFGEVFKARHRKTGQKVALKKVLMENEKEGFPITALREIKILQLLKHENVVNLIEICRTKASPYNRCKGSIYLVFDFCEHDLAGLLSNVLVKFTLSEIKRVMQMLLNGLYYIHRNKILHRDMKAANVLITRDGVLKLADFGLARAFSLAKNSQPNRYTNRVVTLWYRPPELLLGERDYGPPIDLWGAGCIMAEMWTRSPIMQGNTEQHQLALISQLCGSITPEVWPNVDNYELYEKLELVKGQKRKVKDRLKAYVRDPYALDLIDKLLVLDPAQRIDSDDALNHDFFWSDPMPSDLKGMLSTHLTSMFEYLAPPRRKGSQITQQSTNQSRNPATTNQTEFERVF
T1 sequence (O60563 whole entry partner): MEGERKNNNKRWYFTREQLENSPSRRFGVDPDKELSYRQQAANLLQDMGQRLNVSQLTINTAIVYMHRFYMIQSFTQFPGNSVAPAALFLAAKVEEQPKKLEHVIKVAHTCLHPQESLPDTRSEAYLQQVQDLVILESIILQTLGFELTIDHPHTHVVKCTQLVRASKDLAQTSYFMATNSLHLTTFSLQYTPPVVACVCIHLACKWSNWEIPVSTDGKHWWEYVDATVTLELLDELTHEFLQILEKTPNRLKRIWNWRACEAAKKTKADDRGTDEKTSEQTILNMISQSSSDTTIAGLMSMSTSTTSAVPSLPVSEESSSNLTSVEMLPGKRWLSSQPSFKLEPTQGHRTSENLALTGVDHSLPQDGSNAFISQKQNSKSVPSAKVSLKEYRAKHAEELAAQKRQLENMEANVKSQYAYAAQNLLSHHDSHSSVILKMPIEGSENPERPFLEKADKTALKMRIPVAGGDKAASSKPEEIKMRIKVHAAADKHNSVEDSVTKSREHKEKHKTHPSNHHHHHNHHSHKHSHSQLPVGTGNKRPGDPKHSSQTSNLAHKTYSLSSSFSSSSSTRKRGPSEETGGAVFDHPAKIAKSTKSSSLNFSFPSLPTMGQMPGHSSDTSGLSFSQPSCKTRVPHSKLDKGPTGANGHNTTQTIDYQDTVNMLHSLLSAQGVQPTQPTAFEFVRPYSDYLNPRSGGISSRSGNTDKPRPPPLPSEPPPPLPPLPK

SMILES | IC50 [1] | EC50 [2]
COc1ccc(F)cc1-c1ncnc2[nH]c(C3=CCN([C@H]4CC[C@H](CC(=O)O)CC4)CC3)cc12 [Example 87, (trans-4-{4-[4-(5-fluoro-2-methoxyphenyl)-7H-pyrrolo[2,3-d]pyrimidin-6-yl]-3,6-dihydropyridin-1(2H)-yl}cyclohexyl)acetic acid] | 300 nM | 4100 nM
COc1ccc(F)cc1-c1ncnc2[nH]c(C3=CCN(Cc4ccncc4)CC3)cc12 [Example 27, 4-(5-fluoro-2-methoxyphenyl)-6-[1-(pyridin-4-ylmethyl)-1,2,3,6-tetrahydropyridin-4-yl]-7H-pyrrolo[2,3-d]pyrimidine] | 220 nM | 720 nM
CS(=O)(=O)N1CC=C(c2cc3c(-c4cc(NCC5CCCO5)ccc4F)ncnc3[nH]2)CC1 (centres unmarked) [Example 32, 4-fluoro-3-{6-[1-(methylsulfonyl)-1,2,3,6-tetrahydropyridin-4-yl]-7H-pyrrolo[2,3-d]pyrimidin-4-yl}-N-(tetrahydrofuran-2-ylmethyl)aniline] | 260 nM | 3600 nM
COCC(=O)N1CC=C(c2cc3c(-c4cc(F)ccc4OC)ncnc3[nH]2)CC1 [Example 18, 1-{4-[4-(5-fluoro-2-methoxyphenyl)-7H-pyrrolo[2,3-d]pyrimidin-6-yl]-3,6-dihydropyridin-1(2H)-yl}-2-methoxyethanone] | 130 nM | 400 nM
COc1ccc(F)cc1-c1ncnc2[nH]c(C3=CCN(Cc4ccnc(C(F)(F)F)c4)CC3)cc12 [Example 28, 4-(5-fluoro-2-methoxyphenyl)-6-(1-{[2-(trifluoromethyl)pyridin-4-yl]methyl}-1,2,3,6-tetrahydropyridin-4-yl)-7H-pyrrolo[2,3-d]pyrimidine] | 220 nM | 1000 nM
COc1ccc(F)cc1-c1ncnc2[nH]c(C3=CCC(N[C@@H](C(=O)O)C(C)C)CC3)cc12 (stereo partly drawn) [Example 84, N-{4-[4-(5-fluoro-2-methoxyphenyl)-7H-pyrrolo[2,3-d]pyrimidin-6-yl]cyclohex-3-en-1-yl}-D-valine] | 440 nM | 6400 nM
CS(=O)(=O)N1CC=C(c2cc3c(-c4cc(NCc5ccc(C#N)cc5)ccc4F)ncnc3[nH]2)CC1 [Example 30, 4-{[(4-fluoro-3-{6-[1-(methylsulfonyl)-1,2,3,6-tetrahydropyridin-4-yl]-7H-pyrrolo[2,3-d]pyrimidin-4-yl}phenyl)amino]methyl}benzonitrile] | 130 nM | 230 nM
COc1ccc(F)cc1-c1ncnc2[nH]c(C3=CCN(C)CC3)cc12 [Example 4, 4-(5-fluoro-2-methoxyphenyl)-6-(1-methyl-1,2,3,6-tetrahydropyridin-4-yl)-7H-pyrrolo[2,3-d]pyrimidine] | 23 nM | 350 nM
COc1ccc(Cl)cc1-c1ncnc2[nH]c(C3=CCN(S(C)(=O)=O)CC3)cc12 [Example 45, 4-(5-chloro-2-methoxyphenyl)-6-[1-(methylsulfonyl)-1,2,3,6-tetrahydropyridin-4-yl]-7H-pyrrolo[2,3-d]pyrimidine] | 180 nM | > 10000 nM
COc1ccc(F)cc1-c1ncnc2[nH]c(C3=CCC(N[C@H](C(=O)O)C(C)C)CC3)cc12 (stereo partly drawn) [Example 78, N-{4-[4-(5-fluoro-2-methoxyphenyl)-7H-pyrrolo[2,3-d]pyrimidin-6-yl]cyclohex-3-en-1-yl}-L-valine] | 750 nM | 6800 nM
COc1ccc(F)cc1-c1ncnc2[nH]c(C3=CCN(C4CCC(C(=O)O)CC4)CC3)cc12 (centres unmarked) [Example 86, 4-{4-[4-(5-fluoro-2-methoxyphenyl)-7H-pyrrolo[2,3-d]pyrimidin-6-yl]-3,6-dihydropyridin-1(2H)-yl}cyclohexanecarboxylic acid] | 400 nM | 3600 nM
COc1ccc(F)cc1-c1ncnc2[nH]c(C3=CCN(Cc4cccc(F)c4)CC3)cc12 [Example 35, 6-[1-(3-fluorobenzyl)-1,2,3,6-tetrahydropyridin-4-yl]-4-(5-fluoro-2-methoxyphenyl)-7H-pyrrolo[2,3-d]pyrimidine] | 150 nM | 930 nM
COC(=O)c1ccc(CN2CC=C(c3cc4c(-c5cc(F)ccc5OC)ncnc4[nH]3)CC2)cc1 [Example 71, methyl 4-({4-[4-(5-fluoro-2-methoxyphenyl)-7H-pyrrolo[2,3-d]pyrimidin-6-yl]-3,6-dihydropyridin-1(2H)-yl}methyl)benzoate] | 110 nM | 780 nM
COc1ccc(F)cc1-c1ncnc2[nH]c(C3=CCC(N[C@H](C(=O)O)C(C)(C)C)CC3)cc12 (stereo partly drawn) [Example 83, N-{4-[4-(5-fluoro-2-methoxyphenyl)-7H-pyrrolo[2,3-d]pyrimidin-6-yl]cyclohex-3-en-1-yl}-3-methyl-L-valine] | 320 nM | 520 nM

Next, values leading:

IC50 [1] | EC50 [2] | SMILES
51 nM | 329 nM | CS(=O)(=O)N1CC=C(c2cc3c(-c4cc(NCc5ccncc5)ccc4F)ncnc3[nH]2)CC1 [Example 37, 4-fluoro-3-{6-[1-(methylsulfonyl)-1,2,3,6-tetrahydropyridin-4-yl]-7H-pyrrolo[2,3-d]pyrimidin-4-yl}-N-(pyridin-4-ylmethyl)aniline]
69 nM | 1000 nM | COc1ccc(F)cc1-c1ncnc2[nH]c(C3=CCOCC3)cc12 [Example 65, 6-(3,6-dihydro-2H-pyran-4-yl)-4-(5-fluoro-2-methoxyphenyl)-7H-pyrrolo[2,3-d]pyrimidine]
68 nM | 3500 nM | CN(C)C(=O)N1CC=C(c2cc3c(-c4cccc(F)c4F)ncnc3[nH]2)CC1 [Example 76, 4-[4-(2,3-difluorophenyl)-7H-pyrrolo[2,3-d]pyrimidin-6-yl]-N,N-dimethyl-3,6-dihydropyridine-1(2H)-carboxamide]
86 nM | 210 nM | COc1ccc(F)cc1-c1ncnc2[nH]c(C3=CCN(C(=O)C4CCCOC4)CC3)cc12 (centres unmarked) [Example 15, 4-[4-(5-fluoro-2-methoxyphenyl)-7H-pyrrolo[2,3-d]pyrimidin-6-yl]-3,6-dihydropyridin-1(2H)-yl(tetrahydro-2H-pyran-3-yl)methanone]
20 nM | 380 nM | COc1ccc(F)cc1-c1ncnc2[nH]c(C3=CCN(S(C)(=O)=O)CC3)cc12 [Example 5, 4-(5-fluoro-2-methoxyphenyl)-6-[1-(methylsulfonyl)-1,2,3,6-tetrahydropyridin-4-yl]-7H-pyrrolo[2,3-d]pyrimidine]
16 nM | 600 nM | COc1ccc(F)cc1-c1ncnc2[nH]c(C3=CCN(C(=O)N(C)C)CC3)cc12 [Example 75, 4-[4-(5-fluoro-2-methoxyphenyl)-7H-pyrrolo[2,3-d]pyrimidin-6-yl]-N,N-dimethyl-3,6-dihydropyridine-1(2H)-carboxamide]
62 nM | 1400 nM | COc1ccc(F)cc1-c1ncnc2[nH]c(C3=CCC(F)(F)CC3)cc12 [Example 61, 6-(4,4-difluorocyclohex-1-en-1-yl)-4-(5-fluoro-2-methoxyphenyl)-7H-pyrrolo[2,3-d]pyrimidine]
43 nM | 376 nM | COc1ccc(F)cc1-c1ncnc2[nH]c(C3=CCN(S(=O)(=O)C4CCS(=O)(=O)C4)CC3)cc12 (centres unmarked) [Example 38, 6-{1-[(1,1-dioxidotetrahydrothiophen-3-yl)sulfonyl]-1,2,3,6-tetrahydropyridin-4-yl}-4-(5-fluoro-2-methoxyphenyl)-7H-pyrrolo[2,3-d]pyrimidine]
43 nM | 310 nM | COc1ccc(F)cc1-c1ncnc2[nH]c(C3=CCN(C(=O)C4CC4)CC3)cc12 [Example 11, cyclopropyl{4-[4-(5-fluoro-2-methoxyphenyl)-7H-pyrrolo[2,3-d]pyrimidin-6-yl]-3,6-dihydropyridin-1(2H)-yl}methanone]
76 nM | 58 nM | COc1ccc(F)cc1-c1ncnc2[nH]c(C3=CCN(Cc4ccc(NC(C)=O)cc4)CC3)cc12 [Example 25, N-[4-({4-[4-(5-fluoro-2-methoxyphenyl)-7H-pyrrolo[2,3-d]pyrimidin-6-yl]-3,6-dihydropyridin-1(2H)-yl}methyl)phenyl]acetamide]
19 nM | 690 nM | COc1ccc(F)cc1-c1ncnc2[nH]c(C3=CCN(S(=O)(=O)C4CC4)CC3)cc12 [Example 8, 6-[1-(cyclopropylsulfonyl)-1,2,3,6-tetrahydropyridin-4-yl]-4-(5-fluoro-2-methoxyphenyl)-7H-pyrrolo[2,3-d]pyrimidine]
